Results on 4 molecules are retold here after publication PMC9085681, “Towards Optimized Bioavailability of ^99mTc-Labeled Barbiturates for Non-invasive Imaging of Matrix Metalloproteinase Activity” (Molecular Imaging and Biology, 2021).

The target of one series is MMP-14 (Homo sapiens, UniProt P50281). Description: in vitro MMP inhibition assay (fluorogenic substrate, protocol of Huang et al.). The class given is biochemical. As to the method:
(§1) In order to evaluate the affinity of the new barbiturate-based compounds towards MMPs, an in vitro inhibition study was performed. The IC50-values were determined for MMP-2, MMP-8, MMP-9, MMP-13, and […] using the protocol from Huang et al. Additionally, the corresponding precursors were also measured and outlined in the SI for comparison.
(§2) To determine the relative potency of new inhibitors in terms of IC50-values the method developed by Huang et al. was applied in an in vitro inhibition study.[14] Compounds of interest were evaluated regarding affinity to MMP-2, -8, -9, -13 and -14 using the artificial MMP-substrate (7-Methoxycoumarine-4-yl)-acetyl-Pro-Leu-Gly-Leu-[3-(2,4-dinitrophenyl)-l-2,3-diaminopropionyl]-Ala-Arg-NH2 (R&D Systems, Minneapolis, USA). The activated form of the corresponding MMPs (2 nM each) were incubated at 37 °C with the barbiturate derivatives in different concentrations (10 pM-1 mM) in TRIS-buffer (50 mM, pH = 7.5), sodium chloride (0.2M), calcium chloride (5 mM), zinc sulfate (20 µM) and Brij® (0.05%) for 30 min. Samples of this mixture (90 µL) were added to the substrate (50 µM, 10 µL) at 37 °C and the increase of fluorescence as a function of time was measured using a TriStar² LB 942 Analyzers (Berthold Technologies, λEx = 330 nm, λEm = 390 nm). The linear change of relative fluorescence after 10 min was plotted as a function of the concentration of the used inbhibitor. The IC50-values were determined by non-linear regression using the Grace 5.1.8 software (Linux).

A further series has as its target T1, MMP-2 (Homo sapiens, UniProt P08253).
T1 sequence (P08253 110-660): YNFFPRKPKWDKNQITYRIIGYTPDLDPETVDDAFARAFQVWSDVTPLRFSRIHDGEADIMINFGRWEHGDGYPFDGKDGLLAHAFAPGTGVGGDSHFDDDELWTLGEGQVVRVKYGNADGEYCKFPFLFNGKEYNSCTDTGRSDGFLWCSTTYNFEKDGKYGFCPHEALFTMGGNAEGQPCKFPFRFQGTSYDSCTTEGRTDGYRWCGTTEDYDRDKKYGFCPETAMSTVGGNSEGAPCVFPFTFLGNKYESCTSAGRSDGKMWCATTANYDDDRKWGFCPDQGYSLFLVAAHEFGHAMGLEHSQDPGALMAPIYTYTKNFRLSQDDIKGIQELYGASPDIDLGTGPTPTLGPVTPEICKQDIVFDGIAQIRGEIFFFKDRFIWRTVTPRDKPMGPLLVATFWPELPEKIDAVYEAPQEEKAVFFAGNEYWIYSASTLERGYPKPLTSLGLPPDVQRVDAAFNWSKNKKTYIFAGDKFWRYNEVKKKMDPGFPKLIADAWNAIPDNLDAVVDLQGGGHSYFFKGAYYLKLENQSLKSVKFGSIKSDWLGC
The series is described as above. In kind it is biochemical. As for the experimental part:
as §1, §2

Another series concerns the target MMP-8 (Homo sapiens, UniProt P22894). The description is as above. In kind it is biochemical. As for the experimental part: as §1, §2
The target of another series is MMP-13 (Homo sapiens, UniProt P45452). The description is as above. In kind it is biochemical. As for the experimental part:
as §1, §2

Another series has as its target MMP-9 (Homo sapiens, UniProt P14780). The description is as above. In kind it is biochemical. As to the method:
as §1, §2

Series [1] can be described thus: distribution coefficient (logDexp), 1-octanol / PBS-buffer. The settings on record: 1-octanol / PBS-buffer pH = 7.4, 99mTc-labeled compound. The class given is physicochemical. As for the experimental part: The serum stability of all radiolabeled compounds was evaluated by incubation in human and murine serum at 37 °C for up to 120 min and analyzed by HPLC. The distribution coefficients (logDexp) were determined in a two-phase system consisting of 1-octanol and PBS-buffer (pH = 7.4) according to the literature.
Following a method described by Prante et al.[13], the distribution coefficient (logDexp) of the radioactive compound was determined in a two-phase system consisting of 1-octanol and PBS-buffer (pH = 7.4) to determine the lipophilicity. For this purpose, the corresponding ligand (~ 20 kBq) was dissolved in buffer (500 μL). 1-Octanol (500 μL) was added and the mixture was shaken at room temperature for 1 min. To achieve phase separation, the system was centrifuged for 2 min at 3000 rpm. Subsequently a part of the octanol phase (400 μL) was removed and buffer (400 μL) was added. The combined phases were shaken and layers were separated according to the description above. Aliquots of the buffer and octanol layers (3 × 100 μL from every layer) were taken to measure radioactivity in a γ-counter. The measurement provided the activity in counts per minute (cpm), the values were decay corrected. By calculating the quotient of cpm (1-Octanol)cpm (PBS) the logDexp can be determined as logcpm (1-Octanol)cpm (PBS).

Where [2] appears, read: activated MMP 2 nM, 37 °C, 30 min preincubation, non-radioactive compound, read-out: IC50 MMP-14.
Where [3] appears, read: activated MMP 2 nM, 37 °C, 30 min preincubation, non-radioactive compound, read-out: IC50 MMP-2.
Where [4] appears, read: activated MMP 2 nM, 37 °C, 30 min preincubation, non-radioactive compound, read-out: IC50 MMP-8.
[5] abbreviates: activated MMP 2 nM, 37 °C, 30 min preincubation, non-radioactive compound, read-out: IC50 MMP-13.
Where [6] appears, read: activated MMP 2 nM, 37 °C, 30 min preincubation, non-radioactive compound, read-out: IC50 MMP-9.

Where a name gives a salt, the structure may show the parent alone. Read-outs that look alike come from different tables or passages of the source.

Chain of MMP-9 (P14780 107-707 limits assumed, species assumed): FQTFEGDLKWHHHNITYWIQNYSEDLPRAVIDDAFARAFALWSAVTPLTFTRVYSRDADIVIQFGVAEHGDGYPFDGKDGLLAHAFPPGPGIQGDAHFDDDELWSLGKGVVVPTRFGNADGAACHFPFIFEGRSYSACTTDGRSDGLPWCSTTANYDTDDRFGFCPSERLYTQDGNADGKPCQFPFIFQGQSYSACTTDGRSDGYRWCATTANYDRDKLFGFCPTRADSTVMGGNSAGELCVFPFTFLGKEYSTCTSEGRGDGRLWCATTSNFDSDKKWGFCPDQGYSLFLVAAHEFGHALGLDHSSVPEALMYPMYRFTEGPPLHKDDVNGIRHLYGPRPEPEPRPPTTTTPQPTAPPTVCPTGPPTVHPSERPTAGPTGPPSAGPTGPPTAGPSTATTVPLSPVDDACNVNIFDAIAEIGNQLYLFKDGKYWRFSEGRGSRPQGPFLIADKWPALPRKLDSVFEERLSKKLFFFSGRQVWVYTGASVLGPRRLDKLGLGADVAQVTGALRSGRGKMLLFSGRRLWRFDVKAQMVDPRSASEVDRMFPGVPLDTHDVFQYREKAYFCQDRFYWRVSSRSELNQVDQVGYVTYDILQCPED
Chain of MMP-8 (P22894 101-467, species assumed): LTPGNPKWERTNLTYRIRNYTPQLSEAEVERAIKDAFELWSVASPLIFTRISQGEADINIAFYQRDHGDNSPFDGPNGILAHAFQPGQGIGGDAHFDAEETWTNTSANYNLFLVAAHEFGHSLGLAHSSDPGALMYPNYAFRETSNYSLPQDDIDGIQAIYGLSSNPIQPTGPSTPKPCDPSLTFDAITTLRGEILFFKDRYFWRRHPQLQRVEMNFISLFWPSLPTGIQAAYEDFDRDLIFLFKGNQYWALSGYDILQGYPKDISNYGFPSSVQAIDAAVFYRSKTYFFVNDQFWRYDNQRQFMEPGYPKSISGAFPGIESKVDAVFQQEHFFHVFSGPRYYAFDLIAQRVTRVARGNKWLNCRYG

In the case of `N[C@@H](Cc1cn(CCOCCOCCOCCN2CCN(C3(c4ccc(Oc5ccccc5)cc4)C(=O)NC(=O)NC3=O)CC2)nn1)C(=O)O` [compound 14, (S)-2-Amino-3-[1-(2-{2-[2-(2-{4-[2,4,6-trioxo-5-(4-phenoxyphenyl)-hexahydropyrimidine-5-yl]piperazine-1-yl}ethoxy)ethoxy]ethoxy}ethyl)-1H-1,2,3-triazol-4-yl]propionic acid potassium salt], the IC50 (in general, the concentration needed to halve the response being measured) was 1.5 ± 0.4 nM at MMP-14 (read-out: IC50 MMP-14, activated MMP 2 nM, 37 °C, 30 min preincubation, non-radioactive compound); 0.6 ± 0.1 nM at MMP-2 (read-out: IC50 MMP-2, activated MMP 2 nM, 37 °C, 30 min preincubation, non-radioactive compound); 3.6 ± 2.6 nM at MMP-8 (read-out: IC50 MMP-8, activated MMP 2 nM, 37 °C, 30 min preincubation, non-radioactive compound); 27 ± 9 nM on MMP-13 (read-out: IC50 MMP-13, activated MMP 2 nM, 37 °C, 30 min preincubation, non-radioactive compound); 1.4 ± 0.3 nM on MMP-9 (read-out: IC50 MMP-9, activated MMP 2 nM, 37 °C, 30 min preincubation, non-radioactive compound).
Regarding `NCCCC[C@H](NCc1cn(CCOCCOCCOCCN2CCN(C3(c4ccc(Oc5ccccc5)cc4)C(=O)NC(=O)NC3=O)CC2)nn1)C(=O)[O-].O=[C]=[Re+](=[C]=O)=[C]=O` [MEA61, {[1-(2-{2-[2-(2-{4-[2,4,6-Trioxo-5-(4-phenoxyphenyl)hexahydropyrimidin-5-yl]piperazin-1-yl}ethoxy)ethoxy]ethoxy}ethyl)-1H-1,2,3-triazol-4-yl]methyl}-L-lysinate tricarbonylrhenium(I)], the IC50 at MMP-14 (setting [2]) was 14 ± 0.8 nM; on MMP-2 (setting [3]), 3.6 ± 0.7 nM; on MMP-8 (setting [4]) it was 5.5 ± 0.4 nM; on MMP-13 (setting [5]), 26 ± 0.6 nM; at MMP-9 (setting [6]), 8 ± 0.5 nM. The “LogD (compound labeled by [^99mTc])” value in series [1] was 0.35 ± 0.23.
With `NCCCC[C@H](NCc1cn(CCOCCOCCOCCN2CCN(C3(c4ccc(Oc5ccccc5)cc4)C(=O)NC(=O)NC3=O)CC2)nn1)C(=O)O` [compound 17, {[1-(2-{2-[2-(2-{4-[2,4,6-Trioxo-5-(4-phenoxyphenyl)hexahydropyrimidin-5-yl]piperazin-1-yl}ethoxy)ethoxy]ethoxy}ethyl)-1H-1,2,3-triazol-4-yl]methyl}-L-lysinate], the IC50 on MMP-14 was determined as 19 ± 2 nM; on MMP-2, 7 ± 3 nM; at MMP-8, 18 ± 3 nM; at MMP-13, 58 ± 9 nM; against MMP-9, 10 ± 2 nM.
Regarding `N[C@@H](Cc1cn(CCOCCOCCOCCN2CCN(C3(c4ccc(Oc5ccccc5)cc4)C(=O)NC(=O)NC3=O)CC2)nn1)C(=O)[O][Re](=[C]=O)(=[C]=O)=[C]=O` [MEA39, (S)-2-Amino-3-[1-(2-{2-[2-(2-{4-[2,4,6-trioxo-5-(4-phenoxyphenyl)-hexahydropyrimidine-5-yl]piperazine-1-yl}ethoxy)ethoxy]ethoxy}ethyl)-1H-1,2,3-triazol-4-yl]propionic acid-carbonyl rhenium(I)], the IC50 came out at 5.9 ± 0.7 nM on MMP-14 (setting [2]); 2 ± 0.5 nM at MMP-2 (setting [3]); 28 ± 7 nM at MMP-8 (setting [4]); 2 ± 0.3 nM at MMP-13 (setting [5]); 0.9 ± 0.1 nM on MMP-9 (setting [6]). The “LogD (compound labeled by [^99mTc])” value in series [1] worked out at 0.79 ± 0.03.
